# According to PubChem BioAssay AID1963960 (Molecular Pharmacology Branch, DTP, NCI, 2024):
# System: MDA-MB-468 spheroids with HUVEC/MSC, viability
# Assay: Anticancer human tumor MDA-MB-468 cell line growth inhibition [PI3K];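 note: spheroids exposed to agents for seven days before readout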;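 for viability, T/C: 100% = DMSO vehicle control viability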
# Settings: for IC50: curve of first compound; for viability, T/C: stronger effect = lower value
# Summary of the method: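 Viability of mixed-cell spheroids was determined after exposure to pairwise combinations, one partner being inavolisib, alpelisib, duvelisib or copanlisib. Highest tested concentration matched clinical Cmax where known and 10 microM where not, descending in half-log steps.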
smiles,measurement,setting,value
CC(Cn1ccc(-c2ccc(C#N)c(Cl)c2)n1)NC(=O)c1cc(C(C)O)[nH]n1 (centres undefined) + Cc1nc(NC(=O)N2CCCC2C(N)=O)sc1-c1ccnc(C(C)(C)C(F)(F)F)c1,IC50,second compound 0.0316 µM,> 10000 nM
same,IC50,second compound 0.1 µM,> 10000 nM
same,IC50,second compound 0.316 µM,> 10000 nM
same,IC50,second compound 1 µM,> 10000 nM
same,IC50,second compound 3.16 µM,> 10000 nM
same,IC50,second compound 10 µM,< 31.6 nM
same,"viability, T/C","second compound 0.0316 µM, first compound 0.0316 µM",82.4%
same,"viability, T/C","second compound 0.0316 µM, first compound 0.1 µM",93%
same,"viability, T/C","second compound 0.0316 µM, first compound 0.316 µM",88.3%
same,"viability, T/C","second compound 0.0316 µM, first compound 1 µM",111%
same,"viability, T/C","second compound 0.0316 µM, first compound 3.16 µM",72%
same,"viability, T/C","second compound 0.0316 µM, first compound 10 µM",50.6%
same,"viability, T/C","second compound 0.1 µM, first compound 0.0316 µM",89.4%
same,"viability, T/C","second compound 0.1 µM, first compound 0.1 µM",93.9%
same,"viability, T/C","second compound 0.1 µM, first compound 0.316 µM",79.9%
same,"viability, T/C","second compound 0.1 µM, first compound 1 µM",99%
same,"viability, T/C","second compound 0.1 µM, first compound 3.16 µM",64.6%
same,"viability, T/C","second compound 0.1 µM, first compound 10 µM",55.7%
same,"viability, T/C","second compound 0.316 µM, first compound 0.0316 µM",88%
same,"viability, T/C","second compound 0.316 µM, first compound 0.1 µM",86.5%
same,"viability, T/C","second compound 0.316 µM, first compound 0.316 µM",80.6%
same,"viability, T/C","second compound 0.316 µM, first compound 1 µM",92.2%
same,"viability, T/C","second compound 0.316 µM, first compound 3.16 µM",61.5%
same,"viability, T/C","second compound 0.316 µM, first compound 10 µM",54%
same,"viability, T/C","second compound 1 µM, first compound 0.0316 µM",86.3%
same,"viability, T/C","second compound 1 µM, first compound 0.1 µM",71.1%
same,"viability, T/C","second compound 1 µM, first compound 0.316 µM",64.1%
same,"viability, T/C","second compound 1 µM, first compound 1 µM",70.4%
same,"viability, T/C","second compound 1 µM, first compound 3.16 µM",61.2%
same,"viability, T/C","second compound 1 µM, first compound 10 µM",50.5%
same,"viability, T/C","second compound 3.16 µM, first compound 0.0316 µM",74.4%
same,"viability, T/C","second compound 3.16 µM, first compound 0.1 µM",54.2%
same,"viability, T/C","second compound 3.16 µM, first compound 0.316 µM",64.4%
same,"viability, T/C","second compound 3.16 µM, first compound 1 µM",61.3%
same,"viability, T/C","second compound 3.16 µM, first compound 3.16 µM",53.4%
same,"viability, T/C","second compound 3.16 µM, first compound 10 µM",49.2%
same,"viability, T/C","second compound 10 µM, first compound 0.0316 µM",33.4%
same,"viability, T/C","second compound 10 µM, first compound 0.1 µM",28.8%
same,"viability, T/C","second compound 10 µM, first compound 0.316 µM",28.4%
same,"viability, T/C","second compound 10 µM, first compound 1 µM",29.9%
same,"viability, T/C","second compound 10 µM, first compound 3.16 µM",28.3%
same,"viability, T/C","second compound 10 µM, first compound 10 µM",21.5%
Cn1cnc2c(F)c(Nc3ccc(Br)cc3Cl)c(C(=O)NOCCO)cc21 + Cc1nc(NC(=O)N2CCCC2C(N)=O)sc1-c1ccnc(C(C)(C)C(F)(F)F)c1,IC50,second compound 0.0316 µM,> 3000 nM
same,IC50,second compound 0.1 µM,1810 nM
same,IC50,second compound 0.316 µM,949 nM
same,IC50,second compound 1 µM,385 nM
same,IC50,second compound 3.16 µM,18.1 nM
same,IC50,second compound 10 µM,< 9.49 nM
same,"viability, T/C","second compound 0.0316 µM, first compound 0.00949 µM",75.3%
same,"viability, T/C","second compound 0.0316 µM, first compound 0.03 µM",80%
same,"viability, T/C","second compound 0.0316 µM, first compound 0.0949 µM",76.9%
same,"viability, T/C","second compound 0.0316 µM, first compound 0.3 µM",94.1%
same,"viability, T/C","second compound 0.0316 µM, first compound 0.949 µM",69.4%
same,"viability, T/C","second compound 0.0316 µM, first compound 3 µM",50.8%
same,"viability, T/C","second compound 0.1 µM, first compound 0.00949 µM",82.7%
same,"viability, T/C","second compound 0.1 µM, first compound 0.03 µM",77.6%
same,"viability, T/C","second compound 0.1 µM, first compound 0.0949 µM",77.8%
same,"viability, T/C","second compound 0.1 µM, first compound 0.3 µM",86.5%
same,"viability, T/C","second compound 0.1 µM, first compound 0.949 µM",60.7%
same,"viability, T/C","second compound 0.1 µM, first compound 3 µM",41.5%
same,"viability, T/C","second compound 0.316 µM, first compound 0.00949 µM",98.5%
same,"viability, T/C","second compound 0.316 µM, first compound 0.03 µM",82.2%
same,"viability, T/C","second compound 0.316 µM, first compound 0.0949 µM",69.7%
same,"viability, T/C","second compound 0.316 µM, first compound 0.3 µM",74.5%
same,"viability, T/C","second compound 0.316 µM, first compound 0.949 µM",46.9%
same,"viability, T/C","second compound 0.316 µM, first compound 3 µM",34.2%
same,"viability, T/C","second compound 1 µM, first compound 0.00949 µM",66.9%
same,"viability, T/C","second compound 1 µM, first compound 0.03 µM",69.4%
same,"viability, T/C","second compound 1 µM, first compound 0.0949 µM",57.2%
same,"viability, T/C","second compound 1 µM, first compound 0.3 µM",54.2%
same,"viability, T/C","second compound 1 µM, first compound 0.949 µM",40.1%
same,"viability, T/C","second compound 1 µM, first compound 3 µM",25.6%
same,"viability, T/C","second compound 3.16 µM, first compound 0.00949 µM",53.9%
same,"viability, T/C","second compound 3.16 µM, first compound 0.03 µM",47.8%
same,"viability, T/C","second compound 3.16 µM, first compound 0.0949 µM",37.5%
same,"viability, T/C","second compound 3.16 µM, first compound 0.3 µM",33.8%
same,"viability, T/C","second compound 3.16 µM, first compound 0.949 µM",21.2%
same,"viability, T/C","second compound 3.16 µM, first compound 3 µM",12.4%
same,"viability, T/C","second compound 10 µM, first compound 0.00949 µM",28.8%
same,"viability, T/C","second compound 10 µM, first compound 0.03 µM",14.7%
same,"viability, T/C","second compound 10 µM, first compound 0.0949 µM",15.8%
same,"viability, T/C","second compound 10 µM, first compound 0.3 µM",12.1%
same,"viability, T/C","second compound 10 µM, first compound 0.949 µM",7.32%
same,"viability, T/C","second compound 10 µM, first compound 3 µM",4.97%
